Holding throughout (type): cell-based
The nature of series [1]: Nephrotoxicity assay: in vitro cytotoxicity of HK-2 cells by CCK-8 assay. To be noted: human, HK-2 cells (human renal), 72 h incubation with drug-containing medium. The essentials:
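Compounds in sterile water, diluted to final 500, 250, 200, 100, 50, 25 and 12.5 µg/mL, were applied for 72 h to human HK-2 kidney cells. Absorbance at 450 nm after 3 h CCK-8 gave viability against untreated wells, and IC50 came from logarithmic regression; three replicates.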

Series [2] has as its system Acinetobacter baumannii ABA19-1. The following applies: ABA19-1. An outline of the steps: (§1)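 The MIC value comes from CLSI broth microdilution after 16-20 h at 35-37°C. Cyclic lipopeptides in Mueller-Hinton broth spanned 64 to 0.03 mg/L final, with each well carrying (2-4) × 10^5 CFU/mL.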
Series [3] deals with Pseudomonas aeruginosa ATCC 27853. To be noted: ATCC 27853. The essentials: as §1
Series [4] relates to Escherichia coli ATCC BAA-2340 (KPC). To be noted: ATCC BAA-2340. An outline of the steps: as §1
For series [5], the system named is Pseudomonas aeruginosa PAE19-3. To be noted: PAE19-3. The essentials:
as §1

Series [6] relates to Escherichia coli ATCC BAA-2523. To be noted: ATCC BAA-2523. An outline of the steps:
as §1

In series [7] the test system is Klebsiella pneumoniae KPN+19-15. To be noted: KPN+19-15. An outline of the steps:
as §1

Series [8] concerns Klebsiella pneumoniae ATCC BAA-1705 (KPC). To be noted: ATCC BAA-1705. The essentials:
as §1

The test system of series [9] is Acinetobacter baumannii NCTC 13304 (OXA-27). The following applies: NCTC 13304. An outline of the steps:
as §1

For orientation: IC50 means the point on the concentration scale where inhibition reaches its midpoint. High values mean lower potency, low ones higher potency. What is called MIC is the least concentration at which growth counts as inhibited. High values mean weaker potency, low ones greater potency.

Values after ≈ are worked out from the molar mass of the structure shown. Bridge positions count the residues as written; N and C are the ends. Square brackets hold non-standard residues; d marks the D form. Peptide text beside a SMILES is read from it. * marks the point of attachment. Heptanoyl(6-Me) = CC(C)CCCCC(=O)*; dOrn = NCCC[C@@H](N)C(=O)O; Nonanoyl = CCCCCCCCC(=O)*; dDab = NCC[C@@H](N)C(=O)O; Heptanoyl = CCCCCCC(=O)*; Octanoyl = CCCCCCCC(=O)*; Orn = NCCC[C@H](N)C(=O)O; dDap = NC[C@@H](N)C(=O)O; Dab = NCC[C@H](N)C(=O)O; Dap = NC[C@H](N)C(=O)O

`CC(C)CCCCC(=O)N[C@@H](CCN)C(=O)N[C@H](C(=O)N[C@H](CO)C(=O)N[C@H]1CCNC(=O)[C@H]([C@@H](C)O)NC(=O)[C@H](CCN)NC(=O)[C@H](CCN)NC(=O)[C@H]([C@@H](C)O)NC(=O)[C@@H](Cc2ccccc2)NC(=O)[C@H](CCCN)NC1=O)[C@@H](C)O` [Compound 67, 6-methylheptanoyl-Dab-Thr-D-Ser-ring(4-10)[Dab-Orn-D-Phe-Thr-Dab-Dab-Thr]] ({Heptanoyl(6-Me)}-[Dab]T[dS][Dab][Orn][dF]T[Dab][Dab]T; lactam 4-C): the IC50 at 72 h in series [1] was more than 500 µg/mL. Besides, the MIC is reported as 0.25 µg/mL (≈ 0.212 µM) in series [2]; 64 µg/mL (≈ 54.3 µM) in [3]; 0.25 µg/mL (≈ 0.212 µM) in [4]; 4 µg/mL (≈ 3.39 µM) in series [5]; 0.25 µg/mL (≈ 0.212 µM) in [6]; 0.5 µg/mL (≈ 0.424 µM) in series [7]. Also, the MIC in series [8] and in series [9] was 0.25 µg/mL (≈ 0.212 µM) each time.
On to `CCCCCCCC(=O)N[C@@H](CCN)C(=O)N[C@H](C(=O)N[C@H](CCN)C(=O)N[C@H]1CCNC(=O)[C@H]([C@@H](C)O)NC(=O)[C@H](CCN)NC(=O)[C@H](CCN)NC(=O)[C@H]([C@@H](C)O)NC(=O)[C@@H](Cc2ccccc2)NC(=O)[C@H](CCN)NC1=O)[C@@H](C)O` [Compound 13, Octanoyl-Dab-Thr-D-Dab-ring(4-10)[Dab-Dab-D-Phe-Thr-Dab-Dab-Thr]] (Octanoyl-[Dab]T[dDab][Dab][Dab][dF]T[Dab][Dab]T; lactam 4-C), for which the IC50 at 72 h in series [1] is more than 500 µg/mL. Also, the MIC was not above 0.03 µg/mL in series [2]; 1 µg/mL (≈ 0.849 µM) in [3]; not above 0.03 µg/mL in [4]; 1 µg/mL (≈ 0.849 µM) in [5]; not above 0.03 µg/mL in [6]; not above 0.03 µg/mL in series [7]. The MIC is recorded as 0.06 µg/mL (≈ 0.051 µM) in series [8] and not above 0.03 µg/mL in [9].
Turning to `CCCCCCC(=O)N[C@@H](CCN)C(=O)N[C@H](C(=O)N[C@@H](CCCN)C(=O)N[C@H]1CCNC(=O)[C@H]([C@@H](C)O)NC(=O)[C@H](CCN)NC(=O)[C@H](CCN)NC(=O)[C@H](CC(C)C)NC(=O)[C@@H](Cc2ccccc2)NC(=O)[C@H](CCN)NC1=O)[C@@H](C)O` [Compound 49, Heptanoyl-Dab-Thr-Orn-ring(4-10)[Dab-Dab-D-Phe-Leu-Dab-Dab-Thr]] (Heptanoyl-[Dab]T[Orn][Dab][Dab][dF]L[Dab][Dab]T; lactam 4-C), the IC50 at 72 h in series [1] was 367 ± 8.7 µg/mL (≈ 309 µM). The MIC in series [2] is given as 0.125 µg/mL (≈ 0.105 µM); in series [3], 0.03 µg/mL (≈ 0.0252 µM); in series [4], 0.03 µg/mL (≈ 0.0252 µM); in [5], 0.5 µg/mL (≈ 0.42 µM); in series [6], 0.03 µg/mL (≈ 0.0252 µM); in series [7], 0.03 µg/mL (≈ 0.0252 µM). Also, the MIC in series [8] turned out to be 0.03 µg/mL (≈ 0.0252 µM); in [9], 0.06 µg/mL (≈ 0.0504 µM).
With `CCCCCCCCC(=O)N[C@@H](CCN)C(=O)N[C@H](C(=O)N[C@H](CO)C(=O)N[C@H]1CCNC(=O)[C@H]([C@@H](C)O)NC(=O)[C@H](CCN)NC(=O)[C@H](CCN)NC(=O)[C@H]([C@@H](C)O)NC(=O)[C@@H](Cc2ccccc2)NC(=O)[C@H](CCCN)NC1=O)[C@@H](C)O` [Compound 70, Nonanoyl-Dab-Thr-D-Ser-ring(4-10)[Dab-Orn-D-Phe-Thr-Dab-Dab-Thr]] (Nonanoyl-[Dab]T[dS][Dab][Orn][dF]T[Dab][Dab]T; lactam 4-C), the IC50 at 72 h in series [1] was 384 ± 29.5 µg/mL (≈ 322 µM). The MIC is recorded as 0.25 µg/mL (≈ 0.21 µM) in series [2]; 64 µg/mL (≈ 53.7 µM) in series [3]; 0.5 µg/mL (≈ 0.419 µM) in [4]; 8 µg/mL (≈ 6.71 µM) in [5]; 0.5 µg/mL (≈ 0.419 µM) in series [6]; 0.5 µg/mL (≈ 0.419 µM) in series [7]. In addition, the MIC in series [8] and in series [9] was 0.25 µg/mL (≈ 0.21 µM) throughout.
The compound `CCCCCCCC(=O)N[C@@H](CCN)C(=O)N[C@H](C(=O)N[C@H](CCCN)C(=O)N[C@H]1CCNC(=O)[C@H]([C@@H](C)O)NC(=O)[C@H](CCN)NC(=O)[C@H](CCN)NC(=O)[C@H](CC(C)C)NC(=O)[C@@H](Cc2ccccc2)NC(=O)[C@H](CCN)NC1=O)[C@@H](C)O` [Compound 43, Octanoyl-Dab-Thr-D-Orn-ring(4-10)[Dab-Dab-D-Phe-Leu-Dab-Dab-Thr]] (Octanoyl-[Dab]T[dOrn][Dab][Dab][dF]L[Dab][Dab]T; lactam 4-C) showed an IC50 at 72 h in series [1] of 328 ± 8.6 µg/mL (≈ 273 µM). In addition, the MIC in [2] is 0.125 µg/mL (≈ 0.104 µM); in [3], 0.25 µg/mL (≈ 0.208 µM); in [4], 0.03 µg/mL (≈ 0.0249 µM); in series [5], 1 µg/mL (≈ 0.831 µM); in series [6], 0.03 µg/mL (≈ 0.0249 µM); in series [7] it was 0.125 µg/mL (≈ 0.104 µM). Further, the MIC in [8] and in series [9] was 0.06 µg/mL (≈ 0.0499 µM) throughout.
For `CCCCCCC(=O)N[C@@H](CN)C(=O)N[C@H](C(=O)N[C@H](CCN)C(=O)N[C@H]1CCNC(=O)[C@H]([C@@H](C)O)NC(=O)[C@H](CCN)NC(=O)[C@H](CCN)NC(=O)[C@H](CC(C)C)NC(=O)[C@@H](Cc2ccccc2)NC(=O)[C@H](CCN)NC1=O)[C@@H](C)O` [Compound 94, Heptanoyl-Dap-Thr-D-Dab-ring(4-10)[Dab-Dab-D-Phe-Leu-Dab-Dab-Thr]] (Heptanoyl-[Dap]T[dDab][Dab][Dab][dF]L[Dab][Dab]T; lactam 4-C), in [1], it took 298 ± 30.7 µg/mL (≈ 257 µM) to reach half-maximal inhibition (IC50 at 72 h). For the same compound, the MIC is listed as 0.03 µg/mL (≈ 0.0258 µM) in series [2]; 1 µg/mL (≈ 0.861 µM) in series [3]; 0.06 µg/mL (≈ 0.0517 µM) in [4]; 1 µg/mL (≈ 0.861 µM) in [5]; 0.06 µg/mL (≈ 0.0517 µM) in [6]; 0.03 µg/mL (≈ 0.0258 µM) in series [7]. For the same compound, the MIC in series [8] and in series [9] was 0.03 µg/mL (≈ 0.0258 µM) in each case.
For `CCCCCCCCC(=O)N[C@@H](CCN)C(=O)N[C@H](C(=O)N[C@H](CN)C(=O)N[C@H]1CCNC(=O)[C@H]([C@@H](C)O)NC(=O)[C@H](CCN)NC(=O)[C@H](CCN)NC(=O)[C@H](CC(C)C)NC(=O)[C@@H](Cc2ccccc2)NC(=O)[C@H](CCN)NC1=O)[C@@H](C)O` [Compound 35, Nonanoyl-Dab-Thr-D-Dap-ring(4-10)[Dab-Dab-D-Phe-Leu-Dab-Dab-Thr]] (Nonanoyl-[Dab]T[dDap][Dab][Dab][dF]L[Dab][Dab]T; lactam 4-C), in series [1], half-maximal inhibition (IC50 at 72 h) was put at 138 ± 8.3 µg/mL (≈ 116 µM). The MIC in series [2] came out at 0.06 µg/mL (≈ 0.0504 µM); in series [3], 0.06 µg/mL (≈ 0.0504 µM); in [4], 0.06 µg/mL (≈ 0.0504 µM); in [5] it was 0.5 µg/mL (≈ 0.42 µM); in [6], 0.06 µg/mL (≈ 0.0504 µM); in [7] it was 0.06 µg/mL (≈ 0.0504 µM). For the same compound, the MIC in [8] and in series [9] was 0.06 µg/mL (≈ 0.0504 µM) in each case.
As to `CCCCCCC(=O)N[C@@H](CN)C(=O)N[C@H](C(=O)N[C@H](CO)C(=O)N[C@H]1CCNC(=O)[C@H]([C@@H](C)O)NC(=O)[C@H](CCN)NC(=O)[C@H](CCN)NC(=O)[C@H]([C@@H](C)O)NC(=O)[C@@H](Cc2ccccc2)NC(=O)[C@H](CCN)NC1=O)[C@@H](C)O` [Compound 54, Heptanoyl-Dap-Thr-D-Ser-ring(4-10)[Dab-Dab-D-Phe-Thr-Dab-Dab-Thr]] (Heptanoyl-[Dap]T[dS][Dab][Dab][dF]T[Dab][Dab]T; lactam 4-C), the IC50 at 72 h in [1] is more than 500 µg/mL. Besides, the MIC in series [2] came to 0.25 µg/mL (≈ 0.22 µM); in [3] it was 64 µg/mL (≈ 56.3 µM); in series [4], 0.03 µg/mL (≈ 0.0264 µM); in [5], 8 µg/mL (≈ 7.04 µM); in series [6] it was 0.03 µg/mL (≈ 0.0264 µM); in [7] it was 0.5 µg/mL (≈ 0.44 µM). Also, the MIC in [8] and in series [9] was 0.25 µg/mL (≈ 0.22 µM) in each case.
The compound `CCCCCCCC(=O)N[C@@H](CCN)C(=O)N[C@H](C(=O)N[C@H](CN)C(=O)N[C@H]1CCNC(=O)[C@H]([C@@H](C)O)NC(=O)[C@H](CCN)NC(=O)[C@H](CCN)NC(=O)[C@H]([C@@H](C)O)NC(=O)[C@@H](Cc2ccccc2)NC(=O)[C@H](CCN)NC1=O)[C@@H](C)O` [Compound 3, Octanoyl-Dab-Thr-D-Dap-ring(4-10)[Dab-Dab-D-Phe-Thr-Dab-Dab-Thr]] (Octanoyl-[Dab]T[dDap][Dab][Dab][dF]T[Dab][Dab]T; lactam 4-C) returned an IC50 at 72 h in [1] of more than 500 µg/mL. In addition, the MIC was not above 0.03 µg/mL in series [2]; 0.03 µg/mL (≈ 0.0258 µM) in series [3]; not above 0.03 µg/mL in [4]; 0.25 µg/mL (≈ 0.215 µM) in [5]; not above 0.03 µg/mL in series [6]; not above 0.03 µg/mL in series [7]. Also, the MIC in [8] and in [9] was not above 0.03 µg/mL each time.

The values above are taken from patent EP4725957A1, “GROUP OF CYCLIC ALKALINE LIPOPEPTIDE COMPOUNDS, AND PREPARATION METHOD THEREFOR AND USE THEREOF” (Institute of Medicinal Biotechnology, Chinese Academy of …, priority 2023, dated 2024).
